Measurements: PMC12209991 (Clinical Pharmacology in Drug Development, 2025)
Where two headings read alike, the source gives them in different places.

What was measured:
[1] = Single ascending dose (SAD) pharmacokinetics in healthy volunteers; format: in vivo, human; settings: for AUC(0-inf) / Cmax / Tmax: human, plasma, po
Procedure: (§1) Analytes were separated by HPLC on a Waters Atlantis T3 analytical column using a gradient mobile phase (mobile phase A: 10% acetonitrile, 90% water, 10 mM ammonium acetate, 0.3% formic acid; mobile phase B: 90% acetonitrile, 10% water, 10 mM ammonium acetate, 0.3% formic acid) run at 0.4 mL/min with initial mobile phase B concentration of 30%.

[2] = Multiple ascending dose (MAD) pharmacokinetics in healthy volunteers, BID for 14 days; format: in vivo, human; settings: for AUC / Cmax / Tmax / half-life: human, plasma, oral; for Tmax: read-out: Tmax, median [min-max]
Procedure: as §1

Q: For CC(=O)N1CCC(COc2cc(F)c3c(=O)[nH]c(CSC4CCOCC4)nc3c2)CC1 [RBN‐3143], which “RBN-3143 dose excreted in urine unchanged” value ([1]; SAD and MAD cohorts, pooled urine) is on record?
A: Approximately 16%

Q: And the AUC(0-inf) ([1]; 25 mg, single oral dose 25 mg, read-out: AUCinf, geometric mean (Geo CV%))?
A: 734 ng·h/mL

Q: What about the AUC(0-inf) ([1]; 25 mg, single oral dose 25 mg, read-out: AUCinf, mean (SD)) of the same molecule?
A: 752 ng·h/mL

Q: What about the Cmax ([1]; 25 mg, single oral dose 25 mg, read-out: Cmax, geometric mean (Geo CV%)) of the same molecule?
A: 134 ng/mL

Q: What about the Cmax ([1]; 25 mg, single oral dose 25 mg, read-out: Cmax, mean (SD)) of the same molecule?
A: 138 ng/mL

Q: And the Tmax ([1]; 25 mg, single oral dose 25 mg, read-out: Tmax, median [min-max])?
A: 2 h

Q: What about the AUC(0-inf) ([1]; 50 mg, single oral dose 50 mg, read-out: AUCinf, geometric mean (Geo CV%)) of the same molecule?
A: 1540 ng·h/mL

Q: What about the AUC(0-inf) ([1]; 50 mg, single oral dose 50 mg, read-out: AUCinf, mean (SD)) of the same molecule?
A: 1560 ng·h/mL

Q: What about the Cmax ([1]; 50 mg, single oral dose 50 mg, read-out: Cmax, geometric mean (Geo CV%)) of the same molecule?
A: 259 ng/mL

Q: What about the Cmax ([1]; 50 mg, single oral dose 50 mg, read-out: Cmax, mean (SD)) of the same molecule?
A: 269 ng/mL

Q: What about the Tmax ([1]; 50 mg, single oral dose 50 mg, read-out: Tmax, median [min-max]) of the same molecule?
A: 2 h

Q: And the AUC(0-inf) ([1]; 100 mg, single oral dose 100 mg, read-out: AUCinf, geometric mean (Geo CV%))?
A: 3540 ng·h/mL

Q: What about the AUC(0-inf) ([1]; 100 mg, single oral dose 100 mg, read-out: AUCinf, mean (SD)) of the same molecule?
A: 3610 ng·h/mL

Q: What about the Cmax ([1]; 100 mg, single oral dose 100 mg, read-out: Cmax, geometric mean (Geo CV%)) of the same molecule?
A: 544 ng/mL

Q: What about the Cmax ([1]; 100 mg, single oral dose 100 mg, read-out: Cmax, mean (SD)) of the same molecule?
A: 556 ng/mL

Q: And the Tmax ([1]; 100 mg, single oral dose 100 mg, read-out: Tmax, median [min-max])?
A: 1.75 h

Q: What about the AUC(0-inf) ([1]; 150 mg, single oral dose 150 mg, read-out: AUCinf, geometric mean (Geo CV%)) of the same molecule?
A: 5000 ng·h/mL

Q: And the AUC(0-inf) ([1]; 150 mg, single oral dose 150 mg, read-out: AUCinf, mean (SD))?
A: 5050 ng·h/mL

Q: What about the Cmax ([1]; 150 mg, single oral dose 150 mg, read-out: Cmax, geometric mean (Geo CV%)) of the same molecule?
A: 653 ng/mL

Q: And the Cmax ([1]; 150 mg, single oral dose 150 mg, read-out: Cmax, mean (SD))?
A: 668 ng/mL

Q: And the Tmax ([1]; 150 mg, single oral dose 150 mg, read-out: Tmax, median [min-max])?
A: 2 h

Q: What about the AUC(0-inf) ([1]; 300 mg, single oral dose 300 mg, read-out: AUCinf, geometric mean (Geo CV%)) of the same molecule?
A: 6230 ng·h/mL

Q: And the AUC(0-inf) ([1]; 300 mg, single oral dose 300 mg, read-out: AUCinf, mean (SD))?
A: 6440 ng·h/mL

Q: And the Cmax ([1]; 300 mg, single oral dose 300 mg, read-out: Cmax, geometric mean (Geo CV%))?
A: 747 ng/mL

Q: What about the Cmax ([1]; 300 mg, single oral dose 300 mg, read-out: Cmax, mean (SD)) of the same molecule?
A: 771 ng/mL

Q: And the Tmax ([1]; 300 mg, single oral dose 300 mg, read-out: Tmax, median [min-max])?
A: 2 h

Q: What about the AUC(0-inf) ([1]; 600 mg, single oral dose 600 mg, read-out: AUCinf, geometric mean (Geo CV%)) of the same molecule?
A: 11700 ng·h/mL

Q: What about the AUC(0-inf) ([1]; 600 mg, single oral dose 600 mg, read-out: AUCinf, mean (SD)) of the same molecule?
A: 11900 ng·h/mL

Q: What about the Cmax ([1]; 600 mg, single oral dose 600 mg, read-out: Cmax, geometric mean (Geo CV%)) of the same molecule?
A: 1200 ng/mL

Q: And the Cmax ([1]; 600 mg, single oral dose 600 mg, read-out: Cmax, mean (SD))?
A: 1240 ng/mL

Q: And the Tmax ([1]; 600 mg, single oral dose 600 mg, read-out: Tmax, median [min-max])?
A: 1.75 h

Q: What about the AUC(0-inf) ([1]; 1000 mg, single oral dose 1000 mg, read-out: AUCinf, geometric mean (Geo CV%)) of the same molecule?
A: 16500 ng·h/mL

Q: What about the AUC(0-inf) ([1]; 1000 mg, single oral dose 1000 mg, read-out: AUCinf, mean (SD)) of the same molecule?
A: 17700 ng·h/mL

Q: And the Cmax ([1]; 1000 mg, single oral dose 1000 mg, read-out: Cmax, geometric mean (Geo CV%))?
A: 1460 ng/mL

Q: What about the Cmax ([1]; 1000 mg, single oral dose 1000 mg, read-out: Cmax, mean (SD)) of the same molecule?
A: 1500 ng/mL

Q: And the Tmax ([1]; 1000 mg, single oral dose 1000 mg, read-out: Tmax, median [min-max])?
A: 2.02 h

Q: What about the Tmax ([1]; SAD, oral, across doses 25-1000 mg, read-out: Tmax (time of peak concentrations)) of the same molecule?
A: 2 h

Q: And the time to steady-state ([2]; BID dosing)?
A: ≤ 3 days

Q: And the AUC ([2]; 150 mg, 150 mg BID, Day 1, plasma, read-out: AUC12, geometric mean (Geo CV%))?
A: 3470 ng·h/mL

Q: What about the AUC ([2]; 150 mg, 150 mg BID, Day 1, plasma, read-out: AUC12, mean (SD)) of the same molecule?
A: 3610 ng·h/mL

Q: And the Cmax ([2]; 150 mg, 150 mg BID, Day 1, plasma, read-out: Cmax, geometric mean (Geo CV%))?
A: 597 ng/mL

Q: And the Cmax ([2]; 150 mg, 150 mg BID, Day 1, plasma, read-out: Cmax, mean (SD))?
A: 623 ng/mL

Q: And the Tmax ([2]; 150 mg, 150 mg BID, Day 1, plasma)?
A: 2.5 h

Q: What about the half-life ([2]; 150 mg, 150 mg BID, Day 1, plasma, read-out: t1/2, geometric mean (Geo CV%) (converted)) of the same molecule?
A: 4.13 h

Q: And the half-life ([2]; 150 mg, 150 mg BID, Day 1, plasma, read-out: t1/2, mean (SD) (converted))?
A: 4.52 h

Q: And the AUC ([2]; 150 mg, 150 mg BID, Day 14, plasma, read-out: AUC12, geometric mean (Geo CV%))?
A: 5570 ng·h/mL

Q: What about the AUC ([2]; 150 mg, 150 mg BID, Day 14, plasma, read-out: AUC12, mean (SD)) of the same molecule?
A: 5660 ng·h/mL

Q: What about the Cmax ([2]; 150 mg, 150 mg BID, Day 14, plasma, read-out: Cmax, geometric mean (Geo CV%)) of the same molecule?
A: 846 ng/mL

Q: What about the Cmax ([2]; 150 mg, 150 mg BID, Day 14, plasma, read-out: Cmax, mean (SD)) of the same molecule?
A: 861 ng/mL

Q: What about the Tmax ([2]; 150 mg, 150 mg BID, Day 14, plasma) of the same molecule?
A: 2.5 h

Q: And the AUC ([2]; 300 mg, 300 mg BID, Day 1, plasma, read-out: AUC12, geometric mean (Geo CV%))?
A: 5540 ng·h/mL

Q: And the AUC ([2]; 300 mg, 300 mg BID, Day 1, plasma, read-out: AUC12, mean (SD))?
A: 5590 ng·h/mL

Q: What about the Cmax ([2]; 300 mg, 300 mg BID, Day 1, plasma, read-out: Cmax, geometric mean (Geo CV%)) of the same molecule?
A: 907 ng/mL

Q: What about the Cmax ([2]; 300 mg, 300 mg BID, Day 1, plasma, read-out: Cmax, mean (SD)) of the same molecule?
A: 925 ng/mL

Q: And the Tmax ([2]; 300 mg, 300 mg BID, Day 1, plasma)?
A: 2.5 h

Q: And the half-life ([2]; 300 mg, 300 mg BID, Day 1, plasma, read-out: t1/2, geometric mean (Geo CV%) (converted))?
A: 4.15 h

Q: What about the half-life ([2]; 300 mg, 300 mg BID, Day 1, plasma, read-out: t1/2, mean (SD) (converted)) of the same molecule?
A: 4.19 h
